Results as given in PMC8049054, “Systematic Assessment of Fragment Identification for Multitarget Drug Design” (Chemmedchem, 2021).

Experiments:
[1] = target: T1, 5‐lipoxygenase (5‐LOX) (Homo sapiens, UniProt P09917); assay: Differential scanning fluorimetry (DSF) screen on 5-LOX; type: binding; conditions: 500 μM fragment, mean of duplicates
T1 construct: made in house; host or cells: E. coli BL21 (DE3)
T1 sequence (P09917 1-674): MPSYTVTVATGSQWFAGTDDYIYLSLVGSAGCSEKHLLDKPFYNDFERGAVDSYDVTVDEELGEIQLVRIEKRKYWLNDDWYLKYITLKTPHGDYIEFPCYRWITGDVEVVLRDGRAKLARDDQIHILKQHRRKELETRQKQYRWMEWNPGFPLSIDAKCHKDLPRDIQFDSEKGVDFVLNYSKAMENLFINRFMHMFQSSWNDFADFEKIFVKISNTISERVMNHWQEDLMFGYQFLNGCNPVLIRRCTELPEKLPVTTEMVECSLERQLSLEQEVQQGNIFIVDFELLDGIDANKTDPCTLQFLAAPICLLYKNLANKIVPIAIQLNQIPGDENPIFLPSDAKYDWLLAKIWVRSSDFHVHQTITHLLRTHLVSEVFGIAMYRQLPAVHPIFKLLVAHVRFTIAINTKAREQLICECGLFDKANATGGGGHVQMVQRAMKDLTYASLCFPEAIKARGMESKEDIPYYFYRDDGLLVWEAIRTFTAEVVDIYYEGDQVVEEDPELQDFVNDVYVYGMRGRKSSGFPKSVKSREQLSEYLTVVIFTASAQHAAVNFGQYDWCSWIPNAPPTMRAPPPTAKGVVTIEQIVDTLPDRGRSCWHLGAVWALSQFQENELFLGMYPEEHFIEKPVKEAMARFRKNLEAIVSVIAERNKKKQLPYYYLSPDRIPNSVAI
From the text: For the primary screen of this fragment library, we employed differential scanning fluorimetry (DSF, also known as thermal shift). DSF is generally applicable to a large panel of protein targets and provides a robust, low‐cost screening technology for fragment‐based approaches. ^[20] All five proteins of our interest are soluble and were recombinantly expressed in Escherichia coli. We performed an initial fragment screen on all five targets by DSF. The use of a uniform screening method for all targets ensured consistent data and provided the opportunity to identify false positive hits which interfered with the screening technology. The conditions of the DSF assay were optimized for the desired screening and validated with reference compounds (Table S1 in the Supporting Information). Compounds causing a positive thermal shift ΔT m≥1.0 °C were considered as active.
DSF measurement of the PDFL (single concentration of 500 μM, duplicates, 96‐well format) on the five proteins retrieved 19 fragment hits on sEH, 28 on LTA4H, 12 on 5‐LOX, 16 on RXRα, and 14 on FXR, respectively. Melting point distributions of the screening library for all five targets are depicted in Figure 2. Amongst the hits, three compounds (Table S2) gave a positive signal on all five proteins likely qualifying them as pan assay interference compounds (PAINS). ^[21] Fragments binding to multiple targets (Scheme 1) were identified for seven out of ten target combinations (Figure 2, Table 1). Among them, fragments 4, 6, 7, and 9 match previously identified privileged scaffolds for fatty acid mimetics. ^[14] […] Active ligands containing N‐phenylbenzamide 6 and the N‐phenylbenzylamine 7 have been described for four of the protein targets. Furthermore, indole, which has been characterized as a privileged heterocycle for fatty acid mimetics, ^[14] is present in fragments 5 and 10. Dual 5‐LOX/RXR ligand 1 was present in 5‐LOX inhibitors, while dual FXR/LTA4H modulator 3 is found among known FXR ligands. Fragments 2 (sEH/5‐LOX) and 8 (LTA4H/RXR) are novel scaffolds not appearing in known ligands of any of the five targets.
Figure S3: SDS page of the purified proteins (proteins RXRα and FXR after TEV cleavage) using a 14% polyacrylamide gel, which was stained with coomassi. Precision Plus Protein™ Unstained Protein Standard s (Bio-Rad Laboratories, Inc. ) was used […]
All experiments were performed as duplicates using MicroAmp fast 96 -well plates. Each plate contained 80 different compound wells and 16 DMSO control wells. First 0.8 µl of a 25 mM Preswick Library Fragment dilution in DMSO or pure DMSO were placed in each of the well (final concentration 500 µM). Then 39.2 µl of the master mi x (containing protein, Triton x -100, SYPRO® Orange Protein Gel Stain and buffer that corresponds to the tested protein) were added.
Table S4: Final concentrations in DSF experiments: […]
5-LOX 500 µM compound, 3.5 µM protein, 0.87x DPBS, 0.87 mM EDTA, 0.01% (W/V) Triton X-100, 2.1% DMSO and 5x SYPRO® with a pH = 7.5 […]
The measurements were performed using a iCycler iQ™ Single -Color Real Time PCR device with a heat rate of 1 °C per min, an excitation wavelength of 490 nm and an emission wavelength of 570 nm. The first derivation calculated by MyiQ Op tical Software 1.0 was analyzed using Microsoft Office Excel 2013 by comparing the maxima. A shift of 1 °C (in case of 5 -LOX 0.9°C) or more compared to the DMSO control were assumed as potentially binding of the fragment.
(1 picture or pasted object on this page, not shown here)

[2] = target: T2, FXR (Homo sapiens, UniProt Q96RI1); assay: ITC measurement FXR LBD; type: binding; design: key: n.b.: no binding; w.b.: weak binding; conditions: 50 μM protein, 250 μM compound, 25 °C
T2 construct: His6-tag and TEV site (N, cleaved yes); made in house; host or cells: E. coli BL21 (DE3)
T2 sequence (Q96RI1 244-472 isoform Q96RI1-2): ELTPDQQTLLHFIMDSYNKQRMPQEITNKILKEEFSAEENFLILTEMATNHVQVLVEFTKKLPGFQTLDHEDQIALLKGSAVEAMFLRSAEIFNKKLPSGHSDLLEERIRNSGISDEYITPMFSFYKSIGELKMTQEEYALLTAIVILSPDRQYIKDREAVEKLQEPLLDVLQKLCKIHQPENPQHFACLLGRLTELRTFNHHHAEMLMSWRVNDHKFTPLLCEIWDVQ
Procedure: For hit validation, we employed secondary assays with orthogonal readouts to confirm fragment activities. Biochemical activity assays were chosen for the enzymes sEH, LTA4H, and 5‐LOX. […] RXRα and FXR modulation was assessed in cell‐based hybrid reporter gene assays. All ten compounds were tested at a single concentration of 500 μM in the sEH and LTA4H activity assays and with a concentration of 100 μM on 5‐LOX, RXRα, and FXR. Fragments showing an inhibition greater than 50 % (sEH‐H and LTA4H) or greater than 70 % (5‐LOX) as well as the hits determined in the DSF experiments were further characterized in full concentration‐response curves between 0.1 and 1000 μM. […] As alternative cell‐free assay we employed isothermal titration calorimetry (ITC) to determine binding affinity of the fragments towards the LBDs of both nuclear receptors. ITC was performed with a protein concentration of 50 μM and compound concentrations of 250 μM. […]
Final concentration per well was 3 nM sEH-Fl, 0.001 % Triton X-100, 25 mM Bis-tris, 0.1 mg/ml BSA, pH = 7.0, 1.6% DMSO […]

SMILES	DSF/ΔT m 5‐LOX [1] [°C]	FXR K d [2]
c1ccc(N2CCNCC2)nc1 [Compound 1]	0.9±0.0	n.b.
Cc1cc(=O)n(-c2ccc(C)c(C)c2)[nH]1 [Compound 2]	1.1±0.0	–
CCCCOc1cc(C(=O)OC)ccc1N [Compound 3]	−1.1±0.0	–
Oc1ccc(Cc2ccccc2)cc1 [Compound 4]	−1.1±0.0	–
Oc1ccc2cc[nH]c2c1 [Compound 5]	−0.1±0.0	n.b.
Cc1ccccc1C(=O)Nc1ccccc1 [Compound 6]	−1.4±2.1	–
CCN(Cc1ccccc1)c1ccccc1 [Compound 7]	0.9±0.0	–
Clc1ccc2c(c1)Nc1ccccc1CC2 [Compound 8]	−0.1±0.0	w.b.
Oc1ccc(-c2ccc(F)cc2F)cc1 [Compound 9]	−1.1±0.0	–
Fc1ccc(-c2c[nH]c3ccccc23)cc1 [Compound 10]	0.9±0.0	n.b.
